Data on two compounds can be found in US7419979B2, “Derivatives of 6-{4-[4-(1H-indole-2-sulphonyl)-piperazin-1-carbonyl-phenyl]}pyradizin-3-one” (AstraZeneca AB, priority 2004, dated 2008).

This test has as its target T1, human FXa (Homo sapiens, UniProt P00742).
T1 construct: human FXa, Haematologic Technologies Inc; purchased Haematologic Technologies Inc
Nature of the test: Measurement of Factor Xa Inhibition (chromogenic substrate method). In kind it is biochemical. The conditions noted are these: inhibition of Factor Xa activity, screen a); chromogenic substrate S-2765, 40 min at 37° C.; specimen results. As to the method: a) Measurement of Factor Xa Inhibition
The FXa inhibitor potency was measured with a chromogenic substrate method, in a Plato 3300 robotic microplate processor (Rosys AG, CH-8634 Hombrechtikon, Switzerland), using 96-well, half-volume microtiter plates (Costar, Cambridge, Mass., USA; Cat No 3690). Stock solutions of test substance in DMSO (72 μL), 10 mmol/L, alternatively 1 mmol/L were diluted serially 1:3 (24+48 μL) with DMSO to obtain ten different concentrations, which were analyzed as samples in the assay, together with controls and blanks. As control sample melagatran was analysed. The dilutions of each test substance were analyzed consecutively, row-wise on the microtiter plate, with wash-cycles between substances to avoid cross-contamination. […] The final assay concentrations were: test substance 0.0068-133, respectively 0.00068-13.3 μmol/L, S-2765 0.40 mmol/L (KM=0.25 mmol/L) and FXa 0.1 nmol/L. The linear absorbance increase at 405 nm during 40 min incubation at 37° C. was used for calculation of percent inhibition for the test samples, as compared to references without inhibitor and/or enzyme. […]

T1 sequence (P00742 235-488 limits assumed): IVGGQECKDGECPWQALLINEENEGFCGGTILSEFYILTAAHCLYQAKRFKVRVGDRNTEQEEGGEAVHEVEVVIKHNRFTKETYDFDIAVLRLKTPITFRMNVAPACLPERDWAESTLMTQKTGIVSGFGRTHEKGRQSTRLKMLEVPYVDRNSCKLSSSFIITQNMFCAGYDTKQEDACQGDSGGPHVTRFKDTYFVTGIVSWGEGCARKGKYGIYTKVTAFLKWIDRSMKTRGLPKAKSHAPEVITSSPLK
T1 sequence (P00742 41-179 partner limits assumed): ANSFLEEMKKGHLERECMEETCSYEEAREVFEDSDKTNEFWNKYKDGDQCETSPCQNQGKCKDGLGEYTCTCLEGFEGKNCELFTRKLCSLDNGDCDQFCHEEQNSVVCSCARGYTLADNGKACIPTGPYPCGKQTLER

A word on the IC50: it is the midpoint of a concentration-inhibition curve. A lower IC50 goes with higher potency. The compound `CNCCn1nc(-c2ccc(C(=O)N3CCN(S(=O)(=O)c4cc5cc(Cl)ccc5[nH]4)CC3)cc2)ccc1=O` [Example 3, 6-{4-[4-(5-Chloro-1H-indole-2-sulphonyl)-piperazine-1-carbonyl]-phenyl}-2-(2-methylamino-ethyl)-2H-pyridazin-3-one] gave an IC50 of 55 nM.
As to `COCCOCCn1nc(-c2ccc(C(=O)N3CCN(S(=O)(=O)c4cc5cc(Cl)ccc5[nH]4)CC3)cc2)ccc1=O` [Example 9, 6-{4-[4-(5-Chloro-1H-indole-2-sulphonyl)-piperazine-1-carbonyl]-phenyl}-2-[2-(2-methoxy-ethoxy)-ethyl]-2H-pyridazin-3-one], 38 nM corresponded to half-maximal inhibition (IC50).
